# Reference: US20240299488A1, “METHODS AND COMPOSITIONS FOR IMPROVING VISUAL FUNCTION IN OCULAR DISEASES AND DISORDERS” (ONL Therapeutics, Inc., priority 2021, published 2024)
# Several values for one entry are separate records, joined by “and”; a condition that tells them apart may be missing. Equal values may be shown once. Ends that are not written are not given here.
# What was measured:
# Assay type in all cases: in vivo, human
# [1] = system: patients having macular degeneration characterized by geographic atrophy (GA); test: Example I: BCVA in GA patients after single intravitreal injection
# [2] = system: patients with retinal detachment; test: Example 2: BCVA in retinal detachment patients, intravitreal injection followed by surgical repair; parameters: key to BCVA Snellen study eye: (HM) = hand motion; (CF) = counting fingers; details: for summary statistics for all patients, mean: doses 25 to 200 ug, baseline mean 1.86
# Experimental: (§1) The primary objective was to determine the Maximum Tolerated Dose (MTD) of a peptide an amino acid sequence […] and the structure of Formula III (ONL1204) and select doses for further clinical studies. During the study, ocular fluid samples were also collected at the time of study drug injection and at the time of vitrectomy. These samples were used for pharmacokinetic and pharmacodynamic analyses.
# (§2) Patients were enrolled in ascending dose groups. […] Safety visits were conducted one day post-injection and as deemed necessary by the examining Investigator (at least 1 visit every 3 days) until Visit 3. At Visit 3 (3+ days post-injection, in accordance with standard of care) patients underwent surgical repair of their retinal detachment with vitrectomy (with or without scleral buckling) and gas or oil tamponade. At the time of surgery, an undiluted vitreous sample was collected for pharmacokinetic and pharmacodynamics analyses, and an aqueous sample was collected for pharmacodynamic analysis. Additional safety visits were targeted for and generally conducted one day post-surgery, 7 days (±3 days) post-surgery, 14 (+4 days) days post-surgery, and Weeks 6, 9, 12 (±7 days each), and Week 24 (+14 days; study exit).
# Therefore, a volume of 0.05 or 0.1 mL was injected into the study eye. Patient participation was approximately 24 weeks (6 months): a single injection treatment and 24 weeks of follow-up.
# [3] = system: patients with retinal detachment; test: Example 2: safety, adverse event reporting
# Experimental: as §1, §2
# The following doses were evaluated: 25 microgram (ug) and 50 ug provided in vials with concentrations of 0.5 mg/mL and/or 2 mg/mL of Formula III. Therefore, a volume of 0.05 or 0.1 mL was injected into the study eye. Patient participation was approximately 24 weeks (6 months): a single injection treatment and 24 weeks of follow-up.
# Planned determinations of dose limiting toxicity included consideration of the following events: • 1.
# MCP1 = test: Example 2: change in cytokine level in ocular fluid samples, MCP1
# Experimental: as §1, §2
# ICAM1 = test: Example 2: change in cytokine level in ocular fluid samples, ICAM1
# Experimental: as §1, §2
# IL1RA = test: Example 2: change in cytokine level in ocular fluid samples, IL1RA
# Experimental: as §1, §2
# IL18 = test: Example 2: change in cytokine level in ocular fluid samples, IL18
# Experimental: as §1, §2
# [4] = dose 25 ug (Table 1), individual patients
# [5] = dose 50 ug (Table 1), individual patients
# [6] = dose 100 ug (Table 1), individual patients
# [7] = dose 200 ug (Table 1), individual patient
substance,measurement,setting,value
HHIYLGAVNYIY-NH2 [ONL1204],change in best corrected visual acuity (BCVA),"[1]; compared to baseline BCVA, FIG. 1, 1 to 24 weeks post treatment",improvement in visual acuity was generally observed
same,"visual outcomes (e.g., visual acuity)","[1]; doses comprising 25 ug and 50 ug, single intravitreal injection",showed an improvement in visual outcomes
same,"summary statistics for all patients, mean","[2]; Week 6, n 14",0.65
same,"summary statistics for all patients, mean","[2]; Week 9, n 13",0.78
same,"summary statistics for all patients, mean","[2]; Week 24, n 13",0.56
same,"visual outcomes, all patients receiving ONL1204","[2]; also with greater than 10 days of central vision loss, 3 to 7 days from administration to surgery, range of detachment heights and extents",improved visual outcomes were observed for all patients receiving ONL1204
same,"visual outcomes (e.g., visual acuity)","[2]; retinal detachment patients, doses comprising 25 ug and 50 ug, with surgery",showed an improvement in visual outcomes
same,BCVA Snellen study eye,"[2]; week 9, dose 100 ug, individual patients",HM
same,patients who experienced adverse events,[3]; 4 patients receiving 25 ug and 4 patients receiving 50 ug,7 out of 8
same,severity and relatedness of adverse events,"[3]; 8 patients, 25 ug and 50 ug","Most were mild, and study procedure or surgery related"
same,total number of adverse events,"[3]; 8 patients, 25 ug and 50 ug",20
same,"Percent Change (%) from time of administering ONL1204 to surgery, MCP1",MCP1; [4],−41.4% and −6.02% and −35.9%
same,"Percent Change (%) from time of administering ONL1204 to surgery, MCP1",MCP1; [5],−3.12% and −48.4% and 11.6%
same,"Percent Change (%) from time of administering ONL1204 to surgery, MCP1",MCP1; [6],−9.5% and 78.5% and 500%
same,"Percent Change (%) from time of administering ONL1204 to surgery, MCP1",MCP1; [7],−2.4%
same,"change in cytokine levels (MCP 1, ICAM, IL IRA, and IL 18) from time of ONL1204 administration to surgery",MCP1; mean over patients of Table 7,mean decrease
same,"Percent Change (%) from time of administering ONL1204 to surgery, ICAM1",ICAM1; [4],−82.4% and −42.7% and −86.2%
same,"Percent Change (%) from time of administering ONL1204 to surgery, ICAM1",ICAM1; [5],64.0% and −100% and 0%
same,"Percent Change (%) from time of administering ONL1204 to surgery, ICAM1",ICAM1; [6],−43.9% and 24.9% and 22.7%
same,"Percent Change (%) from time of administering ONL1204 to surgery, ICAM1",ICAM1; [7],0%
same,"Percent Change (%) from time of administering ONL1204 to surgery, IL1RA",IL1RA; [4],−51.0% and −57.4% and −99.3%
same,"Percent Change (%) from time of administering ONL1204 to surgery, IL1RA",IL1RA; [5],−60.0% and −94.4% and −88.3%
same,"Percent Change (%) from time of administering ONL1204 to surgery, IL1RA",IL1RA; [6],8.5% and −46.1% and −65.2%
same,"Percent Change (%) from time of administering ONL1204 to surgery, IL1RA",IL1RA; [7],−26.3%
same,"Percent Change (%) from time of administering ONL1204 to surgery, IL18",IL18; [4],−60.5% and −22.5% and −50.8%
same,"Percent Change (%) from time of administering ONL1204 to surgery, IL18",IL18; [5],0% (2×) and −100%
same,"Percent Change (%) from time of administering ONL1204 to surgery, IL18",IL18; [6],−33.7% and 0% and 66.0%
same,"Percent Change (%) from time of administering ONL1204 to surgery, IL18",IL18; [7],0%
